In one data set the test system is Human alphaherpesvirus 1. As to the kind of experiment: Antiviral activity against HSV1 infected in african green monkey Vero cells assessed as suppression of plaque formation at 40 ug/ml by plaque-reduction assay. The class given is functional, organism-based.
In the next data set the test system is Vero. Nature of the data set: Cytotoxicity against african green monkey Vero cells at 250 ug/ml. In kind it is cell-based. To be noted: chlorocebus sabaeus.

SMILES strings stand for the structures. Active and inactive are the calls of the source. No cut-off for these calls is given here.

On to `O=c1c(O[C@@H]2O[C@H](CO)[C@@H](O)[C@H](O)[C@H]2O)c(-c2ccc(O)c(O)c2)oc2cc(O)cc(O)c12` [ISOQUERCETIN], for which, in the data set on Human alphaherpesvirus 1, the result was Active. Besides, the Activity result in the data set on Vero was “Toxic”.

The values are drawn from ChEMBL document CHEMBL1150049, “Isolation and characterization of an antiviral flavonoid from Waldsteinia fragarioides” (J Nat Prod, 1992).
